{"source": "patent US6635245B1", "about": "“Strain of bacillus for controlling plant diseases” (priority 1999, dated 2003)", "type_in_all_cases": "in vivo", "key": {"Botrytis cinerea": {"system": "Botrytis cinerea", "experiment": "B-30087 and B-21661 whole broths alone and together, gray mold on pepper", "details": "20 ppm, 0 to 5 scale", "experimental": "A strain of B. pumilus, NRRL B-30087 was tested with B. subtilis, NRRL B-21661, to determine if the fungicidal effect was greater if used together, than if each strain were used alone. Each strain was grown in a 10 liter or 5,000 liter fermenter, in a soy flour-based medium for approximately 50 hours. Each strain was tested as a whole broth culture against Botrytis cinerea gray mold on pepper, and Peronospora parasitica downy mildew on Brassica. The whole broths were tested at 1X, 1/2X and 1/8X. The two strains were then tested in various combinations with each other at 1/2X, 1/4X and 1/8X. A water check (control) and a chemical fungicide (BREAK® at 20 ppm) were also tested for comparison."}, "Uromyces phaseoli": {"system": "Uromyces phaseoli", "experiment": "Plant test, bean rust on snap bean", "details": "snap bean seedlings; 40 ppm; 0 to 5 scale"}, "Bremia lactucae": {"system": "Bremia lactucae", "experiment": "Plant test, downy mildew of lettuce (chemically-resistant strain)", "details": "lettuce seedlings, 0 to 5 scale"}, "Peronospora parasitica": {"system": "Peronospora parasitica", "experiment": "Plant test, downy mildew of Brassica", "details": "Brassica seedlings, 0 to 5 scale"}, "Uncinula necator": {"system": "Uncinula necator", "experiment": "Plant test, grape powdery mildew", "details": "grape seedlings (Chardonnay); 25 ppm; 0 to 5 scale", "experimental": "Grape seedlings (Chardonnay) were grown in two inch pots until the 6-9 true leaf stage. The culture of powdery mildew was maintained on grape seedlings at 22-26° C. under a 14 hour photoperiod. All but the youngest 2-4 leaves are removed. The NRRL Accession No. B-30087, the chemical fungicide (Rally®, myclobutanil at 25 ppm) and the water check are applied to runoff as above for the other pathogens tested. Four to five replications are used for each treatment. To inoculate with powdery mildew, leaves with mildew on maintenance seedlings are removed with scissors and each plant is inoculated individually. The surface of the maintenance seedling is gently brushed with a paintbrush so that spores are deposited onto the upper surface of the test plants. The procedure is performed using a 3× lighted magnification lens to assure all plants are getting equivalent inoculum. Flats with pots are placed in the dark for 16-24 hours at 20-24° C. Flats are kept at 22-26° C. with a 14 hour photoperiod for an additional 9-11 days until the test is read. […] The result using NRRL Accession No. B-30087 is shown below in Table 5."}, "Phytophthora infestans": {"system": "Phytophthora infestans", "details": "tomato seedlings, 0-5 scale"}}, "note": "Where two headings read alike, the source gives them in different places."}
{"compound": "CCCC1COC(Cn2cncn2)(c2ccc(Cl)cc2Cl)O1", "note": "(stereo not drawn) [Break ®, propiconazole]", "values": [{"measurement": "Botrytis cinerea Average disease rating (4 plants)", "setting": "Botrytis cinerea", "value": 0.2}, {"measurement": "Score Rep 1", "setting": "Uromyces phaseoli", "value": 0.0}, {"measurement": "Score Rep 2", "setting": "Uromyces phaseoli", "value": 0.0}, {"measurement": "Score Rep 3", "setting": "Uromyces phaseoli", "value": 0.5}]}
{"compound": "COCC(=O)N(c1c(C)cccc1C)C(C)C(=O)OC", "note": "(stereo not drawn) [Ridomil, metalaxyl]", "values": [{"measurement": "Score Rep 1", "setting": "Bremia lactucae; 125 ppm", "value": 3.0}, {"measurement": "Score Rep 2", "setting": "Bremia lactucae; 125 ppm", "value": 3.0}, {"measurement": "Score Rep 1", "setting": "Peronospora parasitica; 125 ppm", "value": 4.0}, {"measurement": "Score Rep 2", "setting": "Peronospora parasitica; 125 ppm", "value": 4.0}, {"measurement": "Score Rep 3", "setting": "Peronospora parasitica; 125 ppm", "value": 4.0}]}
{"compound": "CCCCC(C#N)(Cn1cncn1)c1ccc(Cl)cc1", "note": "(stereo not drawn) [Rally, myclobutanil]", "values": [{"measurement": "Score Rep 1", "setting": "Uncinula necator", "value": 0.0}, {"measurement": "Score Rep 2", "setting": "Uncinula necator", "value": 0.0}, {"measurement": "Score Rep 3", "setting": "Uncinula necator", "value": 0.0}, {"measurement": "Score Rep 4", "setting": "Uncinula necator", "value": 0.0}]}
{"compound": "CO/C=C(/C(=O)OC)c1ccccc1Oc1cc(Oc2ccccc2C#N)ncn1", "note": "[Quadris, azoxystrobin]", "values": [{"measurement": "Score Rep 1", "setting": "Phytophthora infestans; 62.5 ppm", "value": 0.0}, {"measurement": "Score Rep 2", "setting": "Phytophthora infestans; 62.5 ppm", "value": 0.5}, {"measurement": "Score Rep 3", "setting": "Phytophthora infestans; 62.5 ppm", "value": 0.0}, {"measurement": "Score Rep 4", "setting": "Phytophthora infestans; 62.5 ppm", "value": 0.5}, {"measurement": "Score Rep 5", "setting": "Phytophthora infestans; 62.5 ppm", "value": 0.0}, {"measurement": "Score Rep 1", "setting": "Phytophthora infestans; 125 ppm", "value": 0.0}, {"measurement": "Score Rep 2", "setting": "Phytophthora infestans; 125 ppm", "value": 0.0}, {"measurement": "Score Rep 3", "setting": "Phytophthora infestans; 125 ppm", "value": 0.0}, {"measurement": "Score Rep 4", "setting": "Phytophthora infestans; 125 ppm", "value": 0.0}, {"measurement": "Score Rep 5", "setting": "Phytophthora infestans; 125 ppm", "value": 0.0}]}
{"compound": "CCO[PH](=O)O", "note": "[Aliette, fosetyl-al]", "values": [{"measurement": "Score Rep 1", "setting": "Bremia lactucae; 240 ppm", "value": 5.0}, {"measurement": "Score Rep 2", "setting": "Bremia lactucae; 240 ppm", "value": 3.0}, {"measurement": "Score Rep 1", "setting": "Peronospora parasitica; 240 ppm", "value": 5.0}, {"measurement": "Score Rep 2", "setting": "Peronospora parasitica; 240 ppm", "value": 3.0}]}
